Source: patent publication EP4810052A2, “HCRHR2 SELECTIVE POLYPEPTIDES” (Gubra A/S, priority 2023, dated 2026)
Starred links: 1 amine or outer side, 2 acyl side, 3 side chain; linkers in the order of their positions; H or OH if unused. Non-standard residues stand in square brackets, D forms with d. Residues, ends and D or L forms follow the SMILES beside them. Groups on a side chain read outwards from the residue. *: point of attachment. C20 diacid = O=C(O)CCCCCCCCCCCCCCCCCCC(=O)*; γGlu = O=C(O)[C@H](CCC(=O)[*:2])N[*:1]; Nle = CCCC[C@H](N)C(=O)O; AEEA = NCCOCCOCC(=O)O; Aib = CC(C)(N)C(=O)O

How the values were obtained:
[1] = target: T1, hCRHR2b (Homo sapiens, UniProt Q13324); experiment: cAMP potency, transiently transfected CHO-K1 cells, hCRHR2b; type: cell-based; conditions: transiently transfected CHO-K1, average n=3; read-out: Transient cell system EC50 (nM) hCRHR 2b
T1 construct: DYK (FLAG); host or cells: CHO-K1, transiently transfected
T1 sequence (Q13324 1-438 isoform Q13324-2): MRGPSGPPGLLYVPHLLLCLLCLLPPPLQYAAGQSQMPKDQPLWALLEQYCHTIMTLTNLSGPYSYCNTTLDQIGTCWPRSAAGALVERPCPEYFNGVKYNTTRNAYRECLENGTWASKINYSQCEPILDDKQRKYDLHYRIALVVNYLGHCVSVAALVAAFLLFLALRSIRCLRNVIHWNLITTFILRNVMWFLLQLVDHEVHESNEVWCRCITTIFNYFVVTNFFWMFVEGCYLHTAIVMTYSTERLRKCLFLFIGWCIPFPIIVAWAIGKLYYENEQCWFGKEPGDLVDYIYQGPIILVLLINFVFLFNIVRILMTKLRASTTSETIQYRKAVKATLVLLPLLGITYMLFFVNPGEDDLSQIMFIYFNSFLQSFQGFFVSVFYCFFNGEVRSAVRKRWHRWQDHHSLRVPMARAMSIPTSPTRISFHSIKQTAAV

[2] = target: T2, rCRHR2 (Rattus norvegicus, UniProt P47866); experiment: cAMP potency, transiently transfected CHO-K1 cells, rCRHR2; type: cell-based; conditions: transiently transfected CHO-K1, average n=3; read-out: Transient cell system EC50 (nM) rCRHR 2
T2 construct: DYK (FLAG); host or cells: CHO-K1, transiently transfected
T2 sequence (P47866 whole entry): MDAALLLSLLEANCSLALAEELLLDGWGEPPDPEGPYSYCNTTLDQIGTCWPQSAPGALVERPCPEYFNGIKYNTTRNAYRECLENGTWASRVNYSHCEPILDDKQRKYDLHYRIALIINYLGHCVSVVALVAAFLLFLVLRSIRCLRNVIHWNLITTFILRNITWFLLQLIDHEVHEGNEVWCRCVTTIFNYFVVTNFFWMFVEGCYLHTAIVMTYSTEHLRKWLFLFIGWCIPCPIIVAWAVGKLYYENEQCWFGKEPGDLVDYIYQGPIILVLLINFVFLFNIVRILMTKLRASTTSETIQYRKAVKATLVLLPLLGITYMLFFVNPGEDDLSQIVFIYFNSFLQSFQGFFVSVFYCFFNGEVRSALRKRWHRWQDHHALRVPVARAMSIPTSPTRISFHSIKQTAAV
Description: (§1) Selected peptides were tested for potency on different species (mouse, rat, porcine) using transiently transfected CHO-K1 cells using the general procedure.

[3] = Body mass and body fat content in mouse model of diet-induced obesity (DIO); type: in vivo; conditions: DIO mice; for Blood HbA1c / M. Gastrocnemius / M. Soleus / Body weight at termination / Fat mass change from baseline / Lean mass change from baseline / Relative body weight change at termination: Table 17 study; for Body weight at termination / Fat mass change from baseline / Lean mass change from baseline / Relative body weight change at termination: ± SEM
Description: SEQ ID NO: 3, SEQ ID NO: 6, SEQ ID NO: 238, SEQ ID NO: 16 and SEQ ID NO: 215 were assessed for their ability to reduce body mass and body fat content in a mouse model of diet-induced obesity (DIO).
Male C57BL/6JRj mice were obtained from JanVier (JanVier Labs, France) at 5 weeks of age. The animals were group-housed during obesity induction and then single housed 2 weeks prior to study start. They were housed under a 12/12 h dark-light cycle, light off at 3 PM. Room temperature was controlled to 22°C ± 1°C, with 60 % ± 20% humidity. For 22-23 weeks prior to treatment start and throughout the study, the animals had ad libitum access to high-fat diet (60% kcal fat, D12492, Research Diets) and tap water.
The animals were randomized according to lean mass (EchoMRI) and body weight. Animals were dosed subcutaneously […] for 30-32 days. In study 1, the animals were dosed with vehicle or SEQ ID NO: 3 (10, 30, 60 or 100 nmol/kg). In study 2, the animals were dosed with vehicle or SEQ ID NO: 6 (10 or 30 nmol/kg), SEQ ID NO: 238 (10 or 30 nmol/kg), SEQ ID NO: 16 (10 or 30 nmol/kg), SEQ ID NO: 215 (10 or 30 nmol/kg) or SEQ ID NO: 3 (30 nmol/kg).
Body weight and food intake were recorded daily until day 28 and body composition evaluated on day 26 using EchoMRI. At termination, blood for HbA1c analyses were collected and M. gastrocnemius and M. soleus were weighed.
Statistical significance was evaluated using One-way analysis of variance with Dunnett's multiple comparison test. P < 0.05 was considered statistically significant.

[4] = target: T3, hCRHR2a (Homo sapiens, UniProt Q13324); experiment: cAMP potency, transiently transfected CHO-K1 cells, hCRHR2a; type: cell-based; conditions: transiently transfected CHO-K1, average n=3; read-out: Transient cell system EC50 (nM) hCRHR 2a
T3 construct: DYK (FLAG); host or cells: CHO-K1, transiently transfected
T3 sequence (Q13324 1-411): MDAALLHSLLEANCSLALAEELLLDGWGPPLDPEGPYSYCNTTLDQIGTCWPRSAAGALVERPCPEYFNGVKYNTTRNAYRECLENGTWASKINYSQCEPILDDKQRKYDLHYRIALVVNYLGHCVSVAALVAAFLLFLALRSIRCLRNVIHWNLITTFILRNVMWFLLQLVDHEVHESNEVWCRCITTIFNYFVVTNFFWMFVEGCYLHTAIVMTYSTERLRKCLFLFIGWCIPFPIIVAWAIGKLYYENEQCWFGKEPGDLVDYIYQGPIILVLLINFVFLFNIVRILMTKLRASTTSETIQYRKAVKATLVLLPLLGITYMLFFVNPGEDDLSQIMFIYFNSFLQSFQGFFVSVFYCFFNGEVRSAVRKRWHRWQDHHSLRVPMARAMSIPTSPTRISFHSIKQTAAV

[5] = test system: pCRHR2; experiment: cAMP potency, transiently transfected CHO-K1 cells, pCRHR2; type: cell-based, pig; conditions: transiently transfected CHO-K1, average n=3; read-out: Transient cell system EC50 (nM) pCR HR2
Description: as §1

[6] = Size exclusion chromatography for high molecular weight products (HMWP); type: physicochemical; conditions: for HMWP formation (SEC analysis) T14-T0 (%): 14 days; for HMWP formation (SEC analysis) T28-T0 (%): 28 days
Description: Dissolved samples were incubated for at least 2 h at room temperature on a rocking table. The main peak purity at time zero (T0) was determined using reversed phase chromatography. The samples were incubated at 40°C for 14 days (T14) and 28 days (T28). The samples were analyzed with reversed phase chromatography and size exclusion chromatography.
Size exclusion chromatography (SEC) was used as an analysis for the formation of high molecular weight products (HMWP, covalent dimers, trimers etc.,). SEC analyses was performed on Thermo Dionex Ultimate UHPLC system with UV detection at 215 nm) equipped with a SEC column (Waters BEH 125Å, 1.7 µm, 300mm x 4.6). Analysis was performed by isocratic elution using 60% buffer B (0.1% TFA in 5:95 H2O: acetonitrile) in buffer A (0.1% TFA in 95:5 H2O: acetonitrile) at a column temperature of 60° C over 20 min. Flowrate was 0.3 mL/min.
Chromatograms were integrated as HMWP (all peaks eluting before the main peak), main peak (assuming this is monomeric peptide) and if relevant LMWP (low molecular weight products, all peaks eluting after main peak). The amount of HMWP was reported as area relative to total area in percent.

## CCCC[C@H](NC(=O)[C@@H](NC(=O)[C@H](CCC(=O)O)NC(=O)[C@H](C)NC(=O)[C@H](CC(N)=O)NC(=O)C(C)(C)NC(=O)[C@H](CCCCNC(=O)COCCOCCNC(=O)COCCOCCNC(=O)CC[C@H](NC(=O)CC[C@H](NC(=O)CCCCCCCCCCCCCCCCCCC(=O)O)C(=O)O)C(=O)O)NC(=O)[C@H](C)NC(=O)[C@H](CCC(N)=O)NC(=O)[C@H](CCC(=O)O)NC(=O)[C@H](CCCNC(=N)N)NC(=O)[C@H](C)NC(=O)[C@H](C)NC(=O)[C@H](CCCNC(=N)N)NC(=O)[C@H](C)NC(=O)[C@H](CCCNC(=N)N)NC(=O)[C@H](C)NC(=O)[C@H](CCC(N)=O)NC(=O)[C@H](CO)NC(=O)[C@H](CC(C)C)NC(=O)[C@H](CC(C)C)NC(=O)[C@@H](NC(=O)[C@H](CCC(N)=O)NC(=O)[C@H](CC(C)C)NC(=O)[C@H](CC(C)C)NC(=O)CNC(=O)[C@@H](NC(=O)[C@@H]1CCCN1C(=O)[C@@H](NC(=O)[C@H](CC(=O)O)NC(=O)[C@H](CC(C)C)NC(=O)[C@H](CO)NC(=O)[C@H](CC(C)C)NC(=O)[C@@H](NC(=O)[C@@H]1CCCN1)C(C)C)C(C)C)[C@@H](C)CC)[C@@H](C)CC)[C@@H](C)CC)C(=O)N[C@@H](C)C(=O)N[C@@H](CCC(=O)O)C(=O)N[C@H](C(N)=O)C(C)C [SEQ ID NO: 238] (H-PVLSLDVPIGLLQILLSQARARAAREQAK([AEEA-AEEA-γGlu-γGlu-C20 diacid])[Aib]NAEI[Nle]AEV-NH2)
[1]
  EC50: 0.016 nM
[2]
  EC50: 0.067 nM
[3]; 28 days, compared to vehicle
  relative body weight: prolonged dose-dependent reduction
[3]; 10 nmol/kg
  Blood HbA1c: 4.3 ± 0.04 %
  M. Gastrocnemius: 0.18 ± 0.001 g
  M. Soleus: 0.012 ± 0.0003 g
  Body weight at termination: 39.1 ± 0.7 g
  Fat mass change from baseline: -9.5 ± 0.6 g
  Lean mass change from baseline: -0.4 ± 0.2 g
  Relative body weight change at termination: 82.3 ± 1.2 %
[3]; 30 nmol/kg
  Blood HbA1c: 4.4 ± 0.1 %
  M. Gastrocnemius: 0.18 ± 0.004 g
  M. Soleus: 0.011 ± 0.0007 g
  Body weight at termination: 37.4 ± 0.9 g
  Fat mass change from baseline: -10.7 ± 0.3 g
  Lean mass change from baseline: -0.7 ± 0.3 g
  Relative body weight change at termination: 77.9 ± 0.7 %
[4]
  EC50: 0.018 nM
[5]
  EC50: 0.015 nM
[6]; pH 7.0, 40°C
  HMWP formation (SEC analysis) T14-T0 (%): 0.3%
  HMWP formation (SEC analysis) T28-T0 (%): 0.5%
[6]; pH 7.5, 40°C
  HMWP formation (SEC analysis) T14-T0 (%): 0.4%
  HMWP formation (SEC analysis) T28-T0 (%): 0.4%
[6]; pH 8.0, 40°C
  HMWP formation (SEC analysis) T14-T0 (%): -0.1%
  HMWP formation (SEC analysis) T28-T0 (%): 0.2%
